In US12187717B2, “Compound and use thereof in treating autoimmune diseases” (PARENCHYMA BIOTECH INC., priority 2022, dated 2025):

Tests used:
[1] = tested on: intestinal epithelial barrier integrity; experiment: Mucosal healing with FITC-dextran in DSS-induced inflammatory bowel disease model; format: in vivo, C57BL/6 mice; conditions: 10 mg/kg oral daily, 15th day, 4 hours after FITC-dextran, compared to solvent control
Experimental: In order to investigate mucosal healing effects of the compounds according to an embodiment of the present invention, inflammatory bowel disease was induced in C57BL/6 mice, and a degree of recovery of intestinal epithelial harrier integrity was assessed by administering Compound 6 as follows. On day 0 of the experiment, a 2.0% DSS solution prepared by dissolving 2.0% DSS in sterile distilled water was given for drinking to C57BL/6 mice (11 weeks old, female, 20±2 g) for 7 days. The 2.0% DSS solution was changed at an interval of 2 days. Sterile distilled water was provided for drinking from the 8th day of the experiment. Body weight and severity index were measured at an interval of 2 days from the 0th day of the experiment, so as to confirm the onset of inflammatory bowel disease. […] 4 hours after oral administration, fluorescence was measured in the serum extracted from the heart (fluorometer, excitation 485490 nm, emission […]).

[2] = tested on: experimental autoimmune encephalomyelitis (EAE); experiment: Experimental autoimmune encephalomyelitis (EAE) model of multiple sclerosis; format: in vivo, C57BL/6 mice; conditions: 10 mg/kg oral daily, 15th to 20th days; 21st day; 0-5 stages; solvent control 2.9±1.92
Experimental: On day 0 of the experiment, myelin oligodendrocyte glycoprotein (MOG) 35-55 peptide (MOG35-55, Peptron) (200 μg), heat killed Mmycobacterium tuberculosis, Difco, Cat No. 231141) (500 μg), and an adjuvant (incomplete freund's adjuvant, Sigma Aldrich, Cat No. F5506) were mixed for 7 minutes to form an emulsion. MOG35-55 emulsion was subcutaneously injected into both flanks of C57BL/6 mice (7-8 weeks old, female), respectively, and then 100 μl of pertussis toxin (Sigma Aldrich, Cat No. P2980) (200 ng) was administered into the tail vein. On the 2nd day of the experiment, an equal amount of pertussis toxin was administered intravenously. […]
In the compound 6 administration group according to an embodiment of the present invention, 10 mg/kg of Compound 6 per mouse was completely dissolved in an ethanol-Cremophor EL mixture corresponding to 7.5% (v/v) of the administered dose, and then, was diluted in phosphate buffered saline to prepare the final ethanol:Cremophor EL:phosphate buffered saline (0.375:0.375:9.25, v/v/v), followed by oral administration with 200 μl of the prepared solution daily for a total of 6 times from the 15th to 20th days of the experiment. The multiple sclerosis index was visually observed and recorded in the severity index system classified into 0-5 stages. […]

[3] = pH-metric solubility and logP (SIRIUS T3); format: physicochemical
Experimental: After dissolving Compound 6 in ethanol, the solubility was measured and analyzed using a SIRIUS T3 machine.

CYP1A2 = molecular target: T1, CYP1A2 (Homo sapiens, UniProt P05177); experiment: CYP isoenzyme activity; format: in vitro ADME; conditions: 10 μM
T1 sequence (P05177 1-516): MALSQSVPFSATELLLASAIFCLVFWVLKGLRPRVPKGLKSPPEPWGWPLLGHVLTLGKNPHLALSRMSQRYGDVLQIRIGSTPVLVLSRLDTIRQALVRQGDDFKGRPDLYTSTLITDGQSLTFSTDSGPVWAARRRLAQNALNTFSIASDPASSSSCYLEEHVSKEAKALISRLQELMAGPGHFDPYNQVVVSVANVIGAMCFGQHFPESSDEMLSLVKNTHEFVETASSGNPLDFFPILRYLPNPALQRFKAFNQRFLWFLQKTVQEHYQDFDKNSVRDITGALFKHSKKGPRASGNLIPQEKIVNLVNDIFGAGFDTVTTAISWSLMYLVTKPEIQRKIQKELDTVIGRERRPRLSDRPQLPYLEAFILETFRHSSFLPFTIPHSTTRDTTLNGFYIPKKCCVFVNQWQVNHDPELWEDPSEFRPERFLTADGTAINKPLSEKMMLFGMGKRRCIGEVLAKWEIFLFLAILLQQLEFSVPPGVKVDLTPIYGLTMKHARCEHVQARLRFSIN

CYP2C19 = CYP2C19 (Homo sapiens, UniProt P33261); experiment: CYP isoenzyme activity; format: in vitro ADME; conditions: 10 μM
Chain of CYP2C19 (P33261 whole entry): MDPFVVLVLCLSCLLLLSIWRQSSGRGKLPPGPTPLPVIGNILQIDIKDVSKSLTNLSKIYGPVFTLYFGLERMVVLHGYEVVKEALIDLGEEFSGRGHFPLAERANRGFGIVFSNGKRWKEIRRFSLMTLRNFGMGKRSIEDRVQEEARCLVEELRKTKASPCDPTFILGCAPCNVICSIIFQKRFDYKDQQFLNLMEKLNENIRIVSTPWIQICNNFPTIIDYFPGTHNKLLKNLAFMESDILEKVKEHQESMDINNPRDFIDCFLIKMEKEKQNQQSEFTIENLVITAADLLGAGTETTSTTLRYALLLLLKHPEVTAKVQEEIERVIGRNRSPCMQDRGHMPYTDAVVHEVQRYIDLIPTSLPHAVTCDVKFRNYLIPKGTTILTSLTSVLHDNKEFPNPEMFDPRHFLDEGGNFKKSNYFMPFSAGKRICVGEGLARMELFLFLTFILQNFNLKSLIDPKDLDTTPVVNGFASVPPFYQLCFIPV

Structure (SMILES): O=C(Cc1c[nH]c2ccc(Cl)cc12)Nc1nc2ccc(N3CCOCC3)cc2s1 [Compound 6, 2-(5-chloro-1H-indol-3-yl)-N-(6-morpholinobenzo[d]thiazol-2-yl)acetamide]
- Serum FITC-dextran [1]: significantly decreased
- disease severity index (EAE) [2]: 0.92±0.58
- pH-metric solubility molarity relative to Comparative Example 1 ([3]; Compound 6 vs Comparative Example 1): about 3.92 times
- logP ([3]; pH-metric results, SIRIUS T3): 3.04
- pH-metric solubility, Molarity ([3]; pH-metric results, SIRIUS T3): 14.3 μM
- pH-metric solubility, Weight/ml ([3]; pH-metric results, SIRIUS T3): 6.104 μg/ml
- CYP1A2 activity (CYP1A2): 88.2 % of Control Activity
- CYP2C19 activity (CYP2C19): 93.1 % of Control Activity
- inhibition of the enzyme activity of CYP2C19 (CYP2C19): little effect
